Measured values published in patent publication US20130210156A1, “Uniform, Functionalized, Cross-Linked Nanostructures for Monitoring pH” (priority 2010, published 2013).

Key:
[1] = pH-responsive UV-Vis and fluorescence emission of MCNs, SCKs and small molecule cross-linkers; assay type: physicochemical; conditions: small molecules in buffer at the surveyed pH values (5.8 to 8.6)
Protocol: The UV-vis absorption spectra of MCNs were collected at room temperature using a Varian Cary 100 Bio UV-visible spectrophotometer and plastic cuvettes with 10 mm of light path. For each MCN absorption spectroscopy measurement, the corresponding buffer solution (5 mM with 5 mM of NaCl) outside the dialysis tubing was used as control.
The fluorescence spectra of MCNs were obtained at room temperature using a Varian Cary Eclipse fluorescence spectrophotometer. All fluorescence spectra from MCN solutions were measured at optical densities at the excitation wavelength. If not specially mentioned otherwise, an excitation wavelength of the observed maximum absorption peak was used. Each fluorescence spectrum was normalized with respect to the absorbed light intensity at the excitation wavelength.
To a solution of PEO45-b-PNAS105-b-PS45 MCMs (30.0 mg of block copolymer precursor, 127 μmol of NAS residues) in 60.0 mL of DMF/H2O (v:v=1:1) at room temperature, was added dropwise over 10 min, a solution of cross-linker 2 or 3 of FIG. 24 (12.7 μmol for nominal 20% of cross-linking and 31.8 μmol for nominal 50% of cross-linking, respectively) in nano-pure H2O. The reaction mixture was allowed to stir for 48 h at room temperature in the absence of light. […]

[2] = excited between 488 nm and 530 nm; cited from earlier work
[3] = Fluorescence emission of photonic SCKs and cross-linkers as a function of solution pH; assay type: physicochemical
Protocol: The resulting micelle solution 2 was incubated with 6.25 mol % or 12.5 mol % of the diamino-terminated pyrazine, relative to the acrylic acid residues, with the addition of EDCI, to afford SCK 3 or 4 having different amounts of fluorophores incorporated into the shells and, therefore, different degrees of cross-linking. The reaction mixture solutions were dialyzed against nanopure water for […] to remove the urea by-products and any non-attached pyrazine fluorophores. The SCK dimensions were then measured by atomic force microscopy (AFM) and transmission electron microscopy (TEM). […] Dialysis of the SCK solutions against nanopure water (ca. pH 7) for 3 days and then partitioning into six vials, each containing 5 mL of 5 mM PBS at pH 4.5, 6.1, 8.0, 9.5, or 11.0, placed the SCKs into different pH environments for analysis of the effects on the SCK hydrodynamic diameters and on the fluorophore photophysical properties.
Covalent cross-linking between the pyrazine units and the PAA shells, thereby, affords photonic SCKs for potential pH sensing. Covalent cross-linking between pyrazine and PAA shells constitutes photonic SCKs for potential biomedical applications. We expected to observe the photophysical consequences of the deprotonated PAA shell from pH 4.5 to 9.5 and those of the PpHS core from pH 9.5 to 11. In order to test our hypothesis, UV-vis and fluorescence measurements were collected on the resulting SCK solutions over the pH range of 4.5 to 11.0 to determine the pyrazine concentration, and then normalize the concentration relative to the fluorescence intensity values (See, FIG. 8). […] To observe the photophysical properties of the photonic SCKs, the data for the pyrazines within the SCK shell layers were compared between the two SCKs having different degrees of pyrazine loading and also against the pyrazine cross-linker associated physically with PAA and as a small molecule in buffered solutions.
To a 50 mL RB flask equipped with a magnetic stir bar was added a solution of micelles in nanopure H2O (15.0 mL, 0.016 mmol of carboxylic acid residues). To this solution, was added a solution of 3,6-diamino-N^2,N^5-bis(2-aminoethyl)pyrazine-2,5-dicarboxamide (0.397 mg, 1.12 μmol (6.25 mol % relative to the acrylic acid residues) for 12.5% cross-linking extent; or 0.794 mg, 2.24 μmol (12.5 mol % relative to the acrylic acid residues) for 25% cross-linking extent) in 1 mL nanopure H2O. The reaction mixture was allowed to stir for 2 h at room temperature. To this solution was added, dropwise via a syringe pump over 1 h, a solution of 1-[3′-(dimethylamino)propyl]-3-ethylcarbodiimide methiodide (EDCI, 0.849 mg, 2.86 μmol for 12.5% cross-linking extent; or 1.70 mg, 5.72 μmol for 25% cross-linking extent) in nanopure H2O (1.0 mL) and the reaction mixture was further stirred for 16 h at room temperature. Finally, the reaction mixture was transferred to pre-soaked dialysis tubing (MWCO ca. 3,500 Da) and dialyzed against nanopure water for 3 d to remove the small molecule starting materials and by-products, and afford aqueous solutions of SCK 3 and 4. SCK solutions for DLS, UV-vis, and fluorescence studies were further partitioned into six vials each containing 5 mM PBS (with 5 mM NaCl) at pH values of 4.5, 6.1, 8.0, 9.5, and 11.
Preparation of shell cross-linked nanoparticles (SCK) from micelles: Micelle solution pH was adjusted between 5 and 6. An electronic pipette was used to add 6.25 mol % or 12.5 mol % of diamine-terminated cross-linker (from stock solution with concentration 2.392 mg/mL or 6.2957 mg/mL) to the micelle solution and let stir for 3 hrs. To this reaction mixture was added dropwise, via a metering pump, a solution of 1-[3-(dimethylamino)propyl]-3-ethylcarbodiimide methiodide dissolved in nanopure water (12.5 mol % or 25.0 mol %). […]

Compound: Cl.Cl.NCCNC(=O)c1nc(N)c(C(=O)NCCN)nc1N [cross-linker 2]
- UV-Vis absorbance and fluorescence emission spectra variation [1]: no apparent UV-Vis absorbance and fluorescence emission spectra variation

Compound: carboxyseminaphthofluorescein [cSNARF®-1]
- I580/I640 ratio [2]: greater than thirty

Compound: Cl.Cl.NCCCOCCOCCOCCCNC(=O)c1nc(N)c(C(=O)NCCCOCCOCCOCCCN)nc1N [cross-linker 3]
- UV-Vis absorbance and fluorescence emission spectra variation [1]: no apparent UV-Vis absorbance and fluorescence emission spectra variation

Compound: Cl.Cl.NCCNC(=O)c1nc(N)c(C(=O)NCCN)nc1N [Photonic Cross-Linker Example 2, 3,6-diamino-N^2,N^5-bis(2-aminoethyl)pyrazine-2,5-dicarboxamide dihydrochloride]
- change in fluorescence ([3]; as a function of increasing pH): less than 10%
- Normalized percent increase in fluorescence ([3]; solution pH 4.5): 100%
- Normalized percent increase in fluorescence ([3]; solution pH 6.1): 100%
- Normalized percent increase in fluorescence ([3]; solution pH 8.0): 100%
- Normalized percent increase in fluorescence ([3]; solution pH 9.5): 110%
- Normalized percent increase in fluorescence ([3]; solution pH 11.0): 100%

Compound: Cl.Cl.NCCCOCCOCCOCCCNC(=O)c1nc(N)c(C(=O)NCCCOCCOCCOCCCN)nc1N [Photonic Cross-Linker Example 3, 3,6-diamino-N^2,N^5-bis(3-(2-(2-(3-aminopropoxy)ethoxy)ethoxy)propyl)pyrazine-2,5-dicarboxamide dihydrochloride]
- decrease in fluorescence ([3]; as a function of increasing pH): ca. 30%
